{
  "source": "patent US20120077694A1",
  "about": "“TARGETS IN BREAST CANCER FOR PROGNOSIS OR THERAPY” (The Regents of the University of California, priority 2006, published 2012)",
  "data": [
    {"tested_on": "HCC1954 and CAMA1 cells", "assay": "Cell growth in 3D culture after shRNA knockdown", "type": "cell-based, human", "details": "vs shRNA control", "values": [
      {"substance": "#2969 shPPFIA1: PPFIA1 shRNA hairpin, SEQ ID NO: 192 (CCGGGAGGAGATTGAAAGTCGAGTTCTCGAGAACTCGACTTTCAATCTCCTCTTTTT)", "colony size / cell growth in 3D culture": "colonies were much smaller"},
      {"substance": "#5149 shNEU3: NEU3 shRNA hairpin, SEQ ID NO: 182 (CCGGAGTGACAACATGCTCCTTCAACTCGAGTTGAAGGAGCATGTTGTCACTTTTTT)", "colony size / cell growth in 3D culture": "colonies were much smaller"},
      {"substance": "#38160 shFGF3: FGF3 shRNA hairpin, SEQ ID NO: 190 (CCGGGAGCTGGGCTATAATACGTATCTCGAGATACGTATTATAGCCCAGCTCTTTTTG)", "colony size / cell growth in 3D culture": "colonies were much smaller"}
    ]}
  ]
}
